Test results: ChEMBL document CHEMBL1151188, “Cytotoxic withaphysalins from the leaves of Acnistus arborescens” (2004)
Converted amounts (≈) assume the structure as drawn.

What was measured:
Type in all cases: functional
Conditions in all cases: read-out: ED50 (the source's name)
[1] = tested on: MCF7; assay: Cytotoxicity against human MCF7 cells
[2] = tested on: LNCaP; assay: Cytotoxicity against human LNCAP cells
[3] = tested on: Lu1; assay: Cytotoxicity against human Lu1 cells

**Q.** What does the source list for CC1=C(C)C(=O)O[C@@H]([C@]2(C)OC(=O)[C@]34CC[C@H]5[C@@H](C[C@H]6O[C@]67[C@@H](O)CCC(=O)[C@]57C)[C@@H]3CC[C@H]24)C1 (relative stereo) [WITHAPHYSALIN N]?
**A.** EC50 [1]: 15 µg/mL (≈ 31 µM); EC50 [2]: > 20 µg/mL; EC50 [3]: 9.3 µg/mL (≈ 19.2 µM)

**Q.** How did the EC50 [1] turn out when CC1=C(C)C(=O)O[C@@H]([C@]2(C)OC(=O)[C@]34CC[C@H]5[C@@H](C[C@H]6O[C@]67[C@@H](O)C=CC(=O)[C@]57C)[C@@H]3CC[C@H]24)C1 (relative stereo) [WITHAPHYSALIN M] was run?
**A.** 1.2 µg/mL (≈ 2.49 µM)

**Q.** What about the EC50 [2] of the same compound?
**A.** 1 µg/mL (≈ 2.07 µM)

**Q.** What about the EC50 [3] of the same compound?
**A.** 0.22 µg/mL (≈ 0.456 µM)

**Q.** What does the source list for CCOC1O[C@@](C)([C@H]2CC(C)=C(C)C(=O)O2)[C@H]2CC[C@H]3[C@@H]4C[C@H]5O[C@]56[C@@H](O)C=CC(=O)[C@]6(C)[C@H]4CC[C@]123 (relative stereo) [WITHAPHYSALIN O]?
**A.** EC50 [1]: 1 µg/mL (≈ 1.95 µM); EC50 [2]: 0.9 µg/mL (≈ 1.76 µM); EC50 [3]: 0.16 µg/mL (≈ 0.312 µM)
